Literature values as cited in publication PMC6264278, “Corydaline Inhibits Multiple Cytochrome P450 and UDP-Glucuronosyltransferase Enzyme Activities in Human Liver Microsomes” (Molecules, 2011).

Key:
CYP2D6 = system: CYP2D6; design: method as in PMID 21425377, PMID 14570772; conditions: read-out: IC50, inhibitory effect on CYP2D6 activity; cited from earlier work
CYP2C9 = conditions: read-out: IC50, CYP2C9 inhibition; cited from earlier work
UGT1A9 = system: UGT1A9; design: method as in PMID 21245288; conditions: read-out: Ki, UGT1A9 inhibition; cited from earlier work

Structure (SMILES)	IC50 (CYP2D6) [µM]	further results
COc1ccc2cc3[n+](cc2c1OC)CCc1cc2c(cc1-3)OCO2 [berberine]	49.4	–
COc1cc2c(cc1OC)-c1cc3ccc(OC)c(OC)c3c[n+]1CC2 [palmatine]	92.6	–
O=C(O)c1cccnc1Nc1cccc(C(F)(F)F)c1 [niflumic acid]	–	Ki (UGT1A9): 0.1 to 0.4 µM
